Data taken from patent EP3932936A1, “POLYPEPTIDE HAVING ANTIBACTERIAL ACTIVITY, COMPOSITION FOR PREVENTING OR TREATING SEPSIS COMPRISING SAME, AND ANTIBACTERIAL COMPOSITION” (Dandi Bioscience Inc, priority 2019, dated 2022).
No end group written: not given here.

Tests used:
[1] = LPS binding affinity (Kd) by Isothermal Titration Calorimeter (ITC); design: species or system E. coli K1; settings: stated in words relative to FP1 (wild type, WT)
Excerpt: FP1 (ADK 44-54) is denoted by wild type (WT), and peptides in which a point mutation occurred at various sites in WT were manufactured (FP3, FP5, FP6, and FP9). To increase the interaction with LPS in a residue sequence of FP3, peptides were designed based on FP3- and LPS-binding models (FP12-NH2 and FP13-NH2), and peptides were designed by additionally introducing a non-natural amino acid and an amino acid isomer (allomeric D-type amino acid) (allD FP12-NH2, allD FP13-NH2, allD FP-13-9a, allD FP-13-9w, allD FP-13-9k, and allD FP13-NH2 (AcOH)). In addition, an N-terminus PEGylated peptide (PEG-alld FP13-NH2 (AcOH)) was additionally designed, synthesized, and provided by ANYGEN, Co. Ltd. The binding affinity between each of the provided peptides and lipopolysaccharide (LPS) was confirmed through measuring the binding affinity (Kd) using Isothermal Titration Calorimeter (ITC).
Specifically, a method of analyzing binding affinity (Kd) between a peptide and LPS is as follows.
Measurement was carried out using a Malvern MicroCal PEAQ-ITC cell instrument, and the following pretreatment was carried out to confirm interaction with LPS. The amount and morphology of a sample cell are 300 µL and coin-shaped, fixed-in-place, respectively; a syringe rotation rate was 1,200 rpm; and a temperature was 30 °C, 35 °C or 25 °C.
Before the experiment, LPS and the peptide were previously diluted with PBS, thereby preparing 2 mM LPS and 0.2 mM peptide. 300 µL of the peptide was added into cells in the ITC instrument, which had been washed, and 40 µL of LPS was put into a syringe. After measurement conditions for ITC (temperature, number of injections) were set, the syringe was inserted into the cell, and ITC measurement was started. When the measurement was completed, analysis is performed, and the Kd values of LPS and the peptide were calculated.

[2] = In vivo toxicity (survival rate for 72 hours); design: species or system ICR mice; settings: ratio of a drug dose exhibiting toxicity to a drug dose for exhibiting a desired response
Protocol: To confirm the therapeutic and pharmaceutical effects of an acetate salt substitution of allD FP13-NH2, a septic animal model induced by intraperitoneally administering each of the Escherichia coli (standard strain and ESBL) strains or a normal mouse was treated with the peptide allD FP13-NH2 (AcOH). The antibiotic effect, the toxicity, and the inhibitory activity of […] cytokine IL-6 of the salt substitution with those of the same peptide at the end of trifluoroacetic acid (TFA) were compared.
An experimental method is as follows: Six-week-old female ICR mice (SPF mice, Samtako) with an average body weight of 25 g were used as experimental animals. The experimental animals were provided with sterile feed and water and bred with less than 10 mice per cage, and a day/night cycle was 12 hours.
To evaluate in vivo toxicity, the mice were divided into groups (n=5 or 6 per group) per experiment, and intraperitoneally treated six times with allD FP13-NH2 (TFA) and allD FP13-NH2 (AcOH) mixed with […]'S DEX solution (vehicle) at 0, 1, 2, 3, 4, or 5 hours, followed by observing a survival rate at intervals of 12 hours for 72 hours.

red blood cells = experiment: Red blood cell hemolytic activity; assay type: cell-based, human; settings: even at a low concentration; control peptide
Protocol: The following experiment was carried out to determine the toxicity of a peptide through measurement of the red blood cell hemolytic activity in a human.
The red blood cells in a human were diluted with PBS for washing, and centrifuged for 10 minutes, the washing process was repeated three times. The 8.0% red blood cell solution diluted with PBS was loaded into a 96-well microtiter plate by 100 µL and 100 µL of a peptide solution was mixed, the mixture was incubated at 37 °C for 1 hour, and then the 96-well microtiter plate was centrifuged for 5 minutes. A 100 µL of supernatant was taken and transferred to another 96-well microtiter plate, and then absorbance was measured at 405 nm. Here, a value obtained when treated with 0.1% Triton X-100 was calculated as 100% hemolysis, and the hemolytic activity of the peptide was calculated as % hemolysis by Equation 1 below. Cell disruption rate(%Hemolysis) = (A−C)/(B−C) × 100 [formula]
Here, A is the absorbance at 405 nm in a peptide solution, B is the absorbance at 405 nm in a 0.1% Triton X-100, and C is the absorbance at 405 nm in a PBS solution.

[3] = Calcein dye leakage from liposome mimicking gram-negative bacterial cell membrane; settings: PC/PG (7:3, w/w) liposome; even at a low concentration
Protocol: (§1) To study an action mechanism for FP12-NH2, FP13-NH2, allD FP12-NH2, and allD FP13-NH2 peptides, the disruption ability of the peptides against liposomes mimicking a bacterial cell membrane and a red blood cell membrane was measured.
EYPG is an abbreviation for egg yolk L-α-phosphatidyl-DL-glycerol, and EYPC is an abbreviation for egg yolk 1,2-diacyl-sn-glycero-3-phosphocholine. CH is an abbreviation for cholesterol. After dissolving the phospholipids composed according to the content of each component in chloroform, the chloroform was removed using a rotary evaporator, and lyophilization was performed overnight. Afterward, the dried lipid film was dissolved in a Tris-buffer solution, and calcein […]. After repeated freezing and thawing, the calcein-encapsulated liposome was manufactured using an extruder. Subsequently, after an excitation wavelength of a spectrofluorimeter (Shimadzu RF 5301 PC spectrofluorimeter, Japan) was set to 490 nm, and an emission wavelength was set to 520 nm, the peptide was administered to the liposome to measure relative dye leakage, provided that a 100% dye leakage was expressed as fluorescence intensity when 0.01% Triton-Xioo was added. […]

[4] = Calcein dye leakage from liposome mimicking red blood cell membrane; settings: for dye leakage: PC/CH (1:1, w/w) liposome mimicking a red blood cell membrane in a mammal, FIG. 3
Protocol: as §1
EYPG is an abbreviation for egg yolk L-α-phosphatidyl-DL-glycerol, and EYPC is an abbreviation for egg yolk 1,2-diacyl-sn-glycero-3-phosphocholine. CH is an abbreviation for cholesterol. After dissolving the phospholipids composed according to the content of each component in chloroform, the chloroform was removed using a rotary evaporator, and lyophilization was performed overnight. Afterward, the dried lipid film was dissolved in a Tris-buffer solution, and calcein […]. After repeated freezing and thawing, the calcein-encapsulated liposome was manufactured using an extruder. Subsequently, after an excitation wavelength of a spectrofluorimeter (Shimadzu RF 5301 PC spectrofluorimeter, Japan) was set to 490 nm, and an emission wavelength was set to 520 nm, the peptide was administered to the liposome to measure relative dye leakage, provided that a 100% dye leakage was expressed as fluorescence intensity when 0.01% Triton-Xioo was added.
The upper graphs of FIG. 3 show the % dye leakage for an EYPC/EYPG (7:3, w/w) liposome mimicking bacterial cells, encapsulating a fluorescent dye, calcein, by a peptide according to a peptide concentration. […] The lower graphs of FIG. […]

S. aureus = settings: after treatment with proteolytic enzyme

## KLRVKLRRKLR [allD FP-13-9k]
[1]
  LPS binding affinity: strong LPS binding affinity, which is equal to or higher than that of FP1

## KLRVKLRRALR [allD FP-13-9a]
[1]
  LPS binding affinity: strong LPS binding affinity, which is equal to or higher than that of FP1

## CC(C)C[C@@H](NC(=O)[C@H](N)CCCCN)C(=O)N[C@H](CCCNC(=N)N)C(=O)N[C@@H](C(=O)N[C@H](CCCCN)C(=O)N[C@H](CC(C)C)C(=O)N[C@H](CCCNC(=N)N)C(=O)N[C@H](CCCNC(=N)N)C(=O)N[C@H](Cc1ccc(O)cc1)C(=O)N[C@H](CC(C)C)C(=O)N[C@H](CCCNC(=N)N)C(N)=O)C(C)C [allD FP13-NH2 (AcOH)]
[2]
  therapeutic index = LD50/ED50: greater than 80

## melittin
Red blood cells
  hemolytic activity: 100%
[3]
  calcein leakage: responsible for calcein leakage
[4]; PC/CH (10:1, w/w) liposome mimicking a human red blood cell, 0.25 µM
  calcein leakage: ~100%

## CC(C)C[C@H](NC(=O)[C@H](Cc1ccc(O)cc1)NC(=O)[C@H](CCCNC(=N)N)NC(=O)[C@H](CCCNC(=N)N)NC(=O)[C@H](CC(C)C)NC(=O)[C@H](CCCCN)NC(=O)[C@@H](NC(=O)[C@H](CCCNC(=N)N)NC(=O)[C@H](CC(C)C)NC(=O)[C@@H](N)CCCCN)C(C)C)C(=O)N[C@@H](CCCNC(=N)N)C(N)=O [FP13-NH2]
[4]
  dye leakage: almost no dye leakage

## KLRVKLRRWLR [allD FP-13-9w]
[1]
  LPS binding affinity: strong LPS binding affinity, which is equal to or higher than that of FP1

## CC(C)C[C@@H](NC(=O)[C@H](N)CCCNC(=N)N)C(=O)N[C@H](CCCNC(=N)N)C(=O)N[C@@H](C(=O)N[C@H](CCCCN)C(=O)N[C@H](CC(C)C)C(=O)N[C@H](CCCNC(=N)N)C(=O)N[C@H](CCCNC(=N)N)C(=O)N[C@H](Cc1ccc(O)cc1)C(=O)N[C@H](CC(C)C)C(=O)N[C@H](CCCNC(=N)N)C(N)=O)C(C)C [allD FP12-NH2]
[4]
  dye leakage: almost no dye leakage
S. aureus
  stability (proteolytic enzyme resistance): very high stability

## CC(C)C[C@H](NC(=O)[C@H](Cc1ccc(O)cc1)NC(=O)[C@H](CCCNC(=N)N)NC(=O)[C@H](CCCNC(=N)N)NC(=O)[C@H](CC(C)C)NC(=O)[C@H](CCCCN)NC(=O)[C@@H](NC(=O)[C@H](CCCNC(=N)N)NC(=O)[C@H](CC(C)C)NC(=O)[C@@H](N)CCCNC(=N)N)C(C)C)C(=O)N[C@@H](CCCNC(=N)N)C(N)=O [FP12-NH2]
[4]
  dye leakage: almost no dye leakage

## CC(C)C[C@@H](NC(=O)[C@H](N)CCCCN)C(=O)N[C@H](CCCNC(=N)N)C(=O)N[C@@H](C(=O)N[C@H](CCCCN)C(=O)N[C@H](CC(C)C)C(=O)N[C@H](CCCNC(=N)N)C(=O)N[C@H](CCCNC(=N)N)C(=O)N[C@H](Cc1ccc(O)cc1)C(=O)N[C@H](CC(C)C)C(=O)N[C@H](CCCNC(=N)N)C(N)=O)C(C)C [allD FP13-NH2]
[4]
  dye leakage: almost no dye leakage
S. aureus
  stability (proteolytic enzyme resistance): very high stability
